The numbers were not newly measured in patent US20120059013A1, “METHOD OF TREATING EARLY MORNING AKINESIA IN SUBJECTS HAVING PARKINSON'S DISEASE” (priority 2010, published 2012), which cites them from elsewhere.

SMILES strings stand for the structures.

Data set [1] relates to hepatic cytochrome P450 enzymes. The settings on record: humans.
The conditions of data set [2]: humans.

Turning to `CCCN[C@H]1CCc2nc(N)sc2C1` [Pramipexole, (S)-2-amino-4,5,6,7,-tetrahydro-6-(propylamino)benzothiazole], in data set [1], the “Interaction with hepatic cytochrome P450 enzymes” value is “no significant interaction with hepatic cytochrome P450 enzymes”. Further, in data set [2], the Half-life entry was “long half-life” and the Oral bioavailability entry was “high oral bioavailablity”.
